The conditions of assay [1]: literature; read-out: KD for heme; cited from earlier work.
Assay [2] is described as follows: Biolayer interferometry of heme binding. Conditions: compared with NCR247 (L-enantiomer). The source says:
Biotinylation of heme: Hemin was biotinylated using the method exactly as described previouslyl^16. Biotin hydrazide, DCC was purchased from Sigma. COSMOSIL™ 5C18-AR-II Packed Column, 4.6 mm I.D.×150 mm from Nacalai USA (San Diego, CA) was used to separate the products. LC-MS was used to verify the correct molecular weight (969.4 Da) of biotinylated heme (in which only one of the two propionate groups of protoheme was conjugated with biotin hydrazide) as described above.
Biolayer interferometry: Biolayer interferometry was carried out using a ForteBio Octet RED96™ biolayer interferometer, following the manufacturer's instructions for a standard kinetic assay. Streptavidin-coated biosensor tips were incubated in 200 μl assay buffer (Water [pH 7.4]), each for 60s. Then biotinylated heme (or NCR247 in the case of Fe(III) PPIX dimethyl ester chloride) was loaded onto each biosensor tip at the defined concentration until the binding signal reached a value of >1.4. Biosensor tip loading was followed by incubation in assay buffer for 60s. Association between the ligand-heme and the analyte-various variants of NCR247 (Increasing concentrations in assay buffer) was observed over a time frame of ˜116 s, in assay buffer. To stop binding kinetics for dissociation, the biosensor tips were placed back into assay buffer not containing any analyte, for 120 s. Curves were fit with Global fit analysis and Data analysis and KD calculation was performed using Fortebio™ data analyses 8.2 software as described previously^89.
(Biolayer interferometry detects binding as a change in optical thickness at a sensor tip.)

A short description of assay [3]: UV-Vis spectroscopy / colour change on heme addition. In kind it is binding. Conditions: heme added to peptide, ferric heme. The protocol: Heme preparation: Hemin solutions were always prepared in 0.1 M NaOH and used within 30 min of preparation. 1:1000 and 1:500 dilution of the stock solution was made and stock concentration was measured by pyridine hemochrome assay as described previously^85 by measuring the absorption at 557 nm using the extinction coefficient of pyridine hemochromogen (34.7 mM^−1 cm^−1).
UV-VIS spectroscopy: All absorption spectra were collected in a Tecan Spark™ 10 M microplate reader using black polystyrene 96-well plates. Absorbance from 300 nm to 700 nm was recorded with a 5 nm interval after an initial shaking at 100 rpm for 15 secs. Heme binding to synthesized peptide: Water (pH 7.4) was used in all reactions and was first added to the wells. Peptides solubilized in water were added and then heme solubilized in 0.1 M NaOH was added, mixed thoroughly and measurements were taken immediately. Peptide and heme volume were kept to a maximum of 5 ul in volume. For all the absorption curves (except Extended FIG. 3a) […] was used. The same was also repeated with 0.1 M Tris buffer (pH 7.4) as a base buffer instead of water.

Assay [4] relates to Sinorhizobium meliloti. The assay is described as follows: S. meliloti cell death in 24 hours (plating). The format is cell-based.
For assay [5], the system named is Sinorhizobium meliloti. Nature of the assay: S. meliloti growth curve. The format is cell-based. Conditions: increasing amounts of peptide; minimal medium. As to the method:
Growth curve: All growth curve experiments were performed in a Tecan SPARK 10M microplate reader using polystyrene flat bottomed, non-treated, sterile 96 well plates. Overnight cultures grown in LBMC were washed and were subcultured (1:100 dilution) in minimal medium supplemented with respective iron concentrations. The plates were programed to continuously shake at 150 rpm and temperature maintained at 30° C. Optical density was measured at 600 nm every 60 minutes.

Some results are limits rather than exact numbers.

On to hemoglobin, for which the Kd in assay [1] is 0.01 µM.

With haempexin: heme scavenger, the Kd in assay [1] is less than 1 µM.

“Aβ (1-42) peptide: human Aβ amyloid peptide derived from cleavage of the amyloid precursor protein”: in assay [1], the Kd was 0.14 µM.

In the case of “RNGCIVDARCPYQKCSYPLYCRRR [M. sativa (alfalfa) NCR247 ortholog, NCR247 ortholog of M. sativa with a 4-amino acid change]”, the “heme binding affinity, in words” value in assay [2] is “binds heme with the same affinity”.

As for “RNGCIVDPRCPYQQCRRPLYCAAA [NCR247 (RRR to AAA mutant)]”, the “heme binding (absorption peaks 366 nm, ~450 nm; colour change)” value in assay [3] is listed as “binds heme”. In assay [4] (6 uM peptide), the “Cell death in 24 hours” value is recorded as “No cell death observed”. Further, in assay [4] (incubated 24 hours, plated in non-selective medium), the “reduction in number of S. meliloti cells (bactericidal effect)” value was “causes no reduction in number of S. meliloti cells”. Moreover, the “inhibition of growth of S. meliloti (bacteriostatic effect)” value in assay [5] is reported as “does not inhibit the growth of Sinorhizobium meliloti”.

What is called Kd is a measure of binding affinity in units of concentration.

These data come from US12065468B2, “Heme-binding small peptide” (priority 2021, dated 2024).
